This is an account of results in ChEMBL document CHEMBL5608173, “Discovery of novel natural-product-derived mutant isocitrate dehydrogenases 1 inhibitors: Structure-based virtual screening, biological evaluation and structure-activity relationship study” (Eur J Med Chem, 2024).

The nature of data set [1]: Clearance in Sprague-Dawley rat at 0.5 mg/kg, iv measured after 24 hrs by LC-MS/MS analysis. In kind it is ADME, organism-based. The settings on record: in vivo.
The test system of data set [2] is HT-1080. Kind of data set: Cell cycle arrest in human HT-1080 cells assessed as G2 phase cells at 4 uM incubated for 24 hrs by PI staining based flow cytometric analysis (reference value: 23.6 %). Type of data set: functional. Background: Flow cytometry measures light scatter and fluorescence of single cells or particles in a stream.
In data set [3] the test system is HT-1080. Kind of data set: Cell cycle arrest in human HT-1080 cells assessed as G1 phase cells at 2 uM incubated for 24 hrs by PI staining based flow cytometric analysis (reference value: 58.1 %). Type of data set: functional.

The structures appear in SMILES notation.

As to `COc1cc(O)c(-c2cc(-c3ccc(O)cc3)nc(N3CCNCC3)n2)cc1CC=C(C)C`, the clearance – broadly, a measure of how efficiently the substance is removed, as volume per time – in data set [1] was 27.3 mL/min/kg. Also, the Activity is reported as 21% in data set [2] and 55.7% in data set [3].
